These results are taken from ChEMBL document CHEMBL1135594 (J Med Chem, 2002).

Activity calls are given as the source filed them. No cut-off for these calls is given here.

The test system of assay [1] is Plasmodium falciparum. Nature of the assay: Displacement of chloroquine from Fe(3+) FPIX-loaded membrane. In kind it is functional.
The target in assay [2] is T1, Histidine-rich protein PFHRP-II (Plasmodium falciparum, UniProt P05227).
T1 sequence (P05227 whole entry): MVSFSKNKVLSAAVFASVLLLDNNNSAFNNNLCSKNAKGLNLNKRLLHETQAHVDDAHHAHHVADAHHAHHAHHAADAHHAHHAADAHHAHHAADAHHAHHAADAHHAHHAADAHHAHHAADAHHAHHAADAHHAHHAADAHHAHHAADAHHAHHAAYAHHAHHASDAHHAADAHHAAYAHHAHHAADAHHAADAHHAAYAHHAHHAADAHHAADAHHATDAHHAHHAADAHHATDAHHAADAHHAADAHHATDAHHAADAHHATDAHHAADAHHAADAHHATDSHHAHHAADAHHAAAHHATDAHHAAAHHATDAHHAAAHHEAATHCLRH
Nature of the assay: Inhibition of beta-hematin formation. It counts as functional.

Assay [3] can be described thus: Resistance factor as the ratio of IC50 against Plasmodium falciparum K1 to that of Plasmodium falciparum HB3. In kind it is functional.
Assay [4] concerns Plasmodium falciparum. Nature of the assay: microbe, parasite or virus in culture.
The test system of assay [5] is Plasmodium falciparum. Nature of the assay: microbe, parasite or virus in culture. This is another data set of the same source.
In assay [6] the test system is Plasmodium falciparum. Nature of the assay: microbe, parasite or virus in culture. The source holds these as a separate data set.
Assay [7] has as its system Plasmodium falciparum. Nature of the assay: Inhibition of chloroquine uptake from intact parasites; Not active. It counts as functional, organism-based.
Assay [8] has as its system Plasmodium falciparum. Nature of the assay: microbe, parasite or virus in culture. This is another data set of the same source.

As a reminder, the IC50 is the concentration that inhibits the measured activity by half. Consider `CC(C)(C)NCCNc1ccnc2cc(C(F)(F)F)ccc12`, for which the half-inhibitory concentration (IC50) with Plasmodium falciparum [1] worked out at 4960 nM; in assay [2] it was 71000 nM; in the assay on Plasmodium falciparum [4], 9.8 nM; with Plasmodium falciparum [5], 5.5 nM; in the assay on Plasmodium falciparum [6] it was 2090 nM. Also, in assay [3], the Resistance factor turned out to be 1.78.

Take `Clc1ccc2c(NCCN3CCOCC3)ccnc2c1`: the half-maximal inhibitory concentration (IC50) in assay [2] worked out at 102000 nM; in the assay with Plasmodium falciparum [4] it was 240 nM; in the assay with Plasmodium falciparum [8], 24900 nM; in the assay with Plasmodium falciparum [5], 150 nM. In the assay with Plasmodium falciparum [7], the NA result is “inactive”.

For `FC(F)(F)c1ccc2c(NCCN3CCCCC3)ccnc2c1`, the IC50 in assay [2] is 65000 nM; in the assay with Plasmodium falciparum [4], 22.2 nM; in the assay on Plasmodium falciparum [8], 8390 nM; in the assay with Plasmodium falciparum [5] it was 10.6 nM; in the assay with Plasmodium falciparum [6], 2030 nM. For the same molecule, in assay [3], the Resistance factor turned out to be 2.09.

Regarding `Clc1ccc2c(NCCN3CCCC3)ccnc2c1`, the concentration for half-maximal inhibition (IC50) in assay [2] worked out at 78000 nM; in the assay with Plasmodium falciparum [4], 13.2 nM; in the assay on Plasmodium falciparum [8] it was 5940 nM; in the assay with Plasmodium falciparum [5], 6.8 nM; in the assay on Plasmodium falciparum [6], 1620 nM.

For `CC(C)(C)NCCNc1ccnc2cc(Cl)ccc12`, the concentration for half-maximal inhibition (IC50) in assay [2] stood at 70000 nM; in the assay on Plasmodium falciparum [4], 15.3 nM; with Plasmodium falciparum [8], 3940 nM; in the assay with Plasmodium falciparum [5], 4.3 nM; with Plasmodium falciparum [6], 710 nM.

In the case of `Clc1ccc2c(NCCN3CCCCC3)ccnc2c1`, the IC50 turned out to be 86000 nM in assay [2]; 13 nM in the assay on Plasmodium falciparum [4]; 7650 nM in the assay on Plasmodium falciparum [8]; 6.8 nM with Plasmodium falciparum [5]; 910 nM with Plasmodium falciparum [6].

For `CCN(CC)CCCC(C)Nc1ccnc2cc(Cl)ccc12` (stereo not drawn), the Resistance factor in assay [3] was determined as 10.
